From patent US20220267310A1, “QUINAZOLINE AND CINNOLINE DERIVATIVES AS DNA-PK INHIBITOR” (MEDSHINE DISCOVERY INC., priority 2019, published 2022)
Read-outs that look alike come from different tables or passages of the source.

Columns and labels:
DNA-PK (h) = target: T1, DNA-PK (h) (Homo sapiens, UniProt P78527); assay: DNA-PK kinase inhibitory activity (HTRF, Eurofins); type: biochemical; details: ATP: 10 μM
T1 construct: Eurofins Pharma Discovery Service (contract assay)
Procedure: (§1) This experiment was tested at Eurofins Pharma Discovery Service, Reaction Biology Corp. (RBC)
(§2) […] DNA-PK: Mg/ATP; GST-cMyc-p53; EDTA; Ser15 antibody; ATP: 10 μM; biotinylated phosphatidylinositol-3,4,5-triphosphate; GST label GRP1 PH domain; streptavidin and phycocyanin; europium-labelled monoclonal antibody against GST.
DNA-PK (h) was incubated in a determination buffer containing 50 nM GST-cMyc-p53 and Mg/ATP (density as required). The reaction was initiated by adding a mixture of Mg/ATP. After incubating at room temperature for 30 min, a termination solution containing EDTA was added to terminate the reaction. Finally, a detection buffer (containing labeled anti-GST monoclonal antibody and europium-labeled anti-phosphate Ser15 antibody against phosphorylated p53) was added. Then, the board was read in time-resolved fluorescence mode, and a Homogeneous Time Resolved Fluorescence (HTRF) signal was measured according to the formula HTRF=10000×(Em665 nm/Em620 nm).

PI3K (p110α/p85α) = target: T2, PI3K (p110α/p85α) (Homo sapiens, UniProt P42336); assay: PI3K (p110α/p85α) kinase inhibitory activity (HTRF); type: biochemical
T2 construct: Eurofins Pharma Discovery Service (contract assay)
T2 sequence (P42336 whole entry, species assumed): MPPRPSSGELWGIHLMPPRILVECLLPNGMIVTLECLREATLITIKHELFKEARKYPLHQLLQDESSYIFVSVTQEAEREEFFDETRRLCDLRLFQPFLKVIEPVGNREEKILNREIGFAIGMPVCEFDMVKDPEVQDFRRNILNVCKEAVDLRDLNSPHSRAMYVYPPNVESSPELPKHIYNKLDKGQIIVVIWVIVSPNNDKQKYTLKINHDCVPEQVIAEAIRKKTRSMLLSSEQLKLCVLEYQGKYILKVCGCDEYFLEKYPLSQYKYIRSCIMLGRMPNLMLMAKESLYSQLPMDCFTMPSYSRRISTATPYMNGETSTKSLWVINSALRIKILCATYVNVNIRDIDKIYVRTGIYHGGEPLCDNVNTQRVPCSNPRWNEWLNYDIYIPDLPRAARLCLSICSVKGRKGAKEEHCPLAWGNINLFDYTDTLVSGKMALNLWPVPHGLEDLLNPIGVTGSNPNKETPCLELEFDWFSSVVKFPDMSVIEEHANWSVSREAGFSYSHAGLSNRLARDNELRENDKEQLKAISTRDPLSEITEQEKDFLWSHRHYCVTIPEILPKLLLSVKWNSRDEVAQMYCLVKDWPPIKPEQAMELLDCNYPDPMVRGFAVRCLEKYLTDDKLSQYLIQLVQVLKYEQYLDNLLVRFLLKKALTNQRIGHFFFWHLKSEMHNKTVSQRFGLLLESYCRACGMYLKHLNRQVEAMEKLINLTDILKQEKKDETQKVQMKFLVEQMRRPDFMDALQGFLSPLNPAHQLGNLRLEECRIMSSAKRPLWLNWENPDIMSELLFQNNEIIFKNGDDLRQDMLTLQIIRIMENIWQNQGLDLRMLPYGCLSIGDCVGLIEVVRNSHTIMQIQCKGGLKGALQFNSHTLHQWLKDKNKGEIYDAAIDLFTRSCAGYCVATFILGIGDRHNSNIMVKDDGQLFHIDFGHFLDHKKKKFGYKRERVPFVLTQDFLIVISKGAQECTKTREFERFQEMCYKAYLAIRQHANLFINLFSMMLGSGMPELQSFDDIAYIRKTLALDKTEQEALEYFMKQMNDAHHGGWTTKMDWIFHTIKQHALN
T2 sequence (P27986 whole entry partner, species assumed): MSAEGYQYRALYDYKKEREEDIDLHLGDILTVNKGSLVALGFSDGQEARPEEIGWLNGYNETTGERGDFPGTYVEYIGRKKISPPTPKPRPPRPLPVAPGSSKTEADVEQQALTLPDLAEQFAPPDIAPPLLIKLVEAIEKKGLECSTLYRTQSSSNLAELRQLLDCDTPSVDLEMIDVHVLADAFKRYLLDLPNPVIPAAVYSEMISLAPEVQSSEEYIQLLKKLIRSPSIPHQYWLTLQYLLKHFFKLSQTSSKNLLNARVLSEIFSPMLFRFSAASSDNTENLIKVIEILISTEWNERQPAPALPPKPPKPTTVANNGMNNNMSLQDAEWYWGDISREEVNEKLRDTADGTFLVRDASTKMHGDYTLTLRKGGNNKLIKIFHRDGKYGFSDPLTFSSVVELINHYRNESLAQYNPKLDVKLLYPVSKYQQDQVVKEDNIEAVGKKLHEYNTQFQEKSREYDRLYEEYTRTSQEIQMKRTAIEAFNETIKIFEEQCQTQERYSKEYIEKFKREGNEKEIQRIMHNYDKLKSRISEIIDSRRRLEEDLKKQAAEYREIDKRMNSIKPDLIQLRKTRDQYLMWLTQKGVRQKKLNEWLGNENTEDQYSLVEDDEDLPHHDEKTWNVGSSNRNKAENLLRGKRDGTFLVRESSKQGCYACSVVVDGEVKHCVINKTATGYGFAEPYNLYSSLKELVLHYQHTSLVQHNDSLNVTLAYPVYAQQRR
Procedure: as §1, §2
(§3) PI3K (p110α/p85α) was incubated in a determination buffer containing phosphatidylinositol 4,5-diphosphate and Mg/ATP (density as required). The reaction was initiated by adding an ATP solution. After incubating at room temperature for 30 min, a termination solution containing EDTA and biotinylated phosphatidylinositol-3,4,5-triphosphate was added to terminate the reaction. Finally, a detection buffer (containing labeled anti-GST monoclonal antibody, PH domain of GRP1 with GST label and streptavidin and phycyanin and […]) was added. Then, the board was read in time-resolved fluorescence mode, and an HTRF signal was measured according to the formula HTRF=10000×(Em665 nm/Em620 nm).

PI3K (p110β/p85α) = target: T3, PI3K (p110β/p85α) (Homo sapiens, UniProt P42338); assay: PI3K (p110β/p85α) kinase inhibitory activity (HTRF); type: biochemical
T3 construct: Eurofins Pharma Discovery Service (contract assay)
T3 sequence (P42338 whole entry, species assumed): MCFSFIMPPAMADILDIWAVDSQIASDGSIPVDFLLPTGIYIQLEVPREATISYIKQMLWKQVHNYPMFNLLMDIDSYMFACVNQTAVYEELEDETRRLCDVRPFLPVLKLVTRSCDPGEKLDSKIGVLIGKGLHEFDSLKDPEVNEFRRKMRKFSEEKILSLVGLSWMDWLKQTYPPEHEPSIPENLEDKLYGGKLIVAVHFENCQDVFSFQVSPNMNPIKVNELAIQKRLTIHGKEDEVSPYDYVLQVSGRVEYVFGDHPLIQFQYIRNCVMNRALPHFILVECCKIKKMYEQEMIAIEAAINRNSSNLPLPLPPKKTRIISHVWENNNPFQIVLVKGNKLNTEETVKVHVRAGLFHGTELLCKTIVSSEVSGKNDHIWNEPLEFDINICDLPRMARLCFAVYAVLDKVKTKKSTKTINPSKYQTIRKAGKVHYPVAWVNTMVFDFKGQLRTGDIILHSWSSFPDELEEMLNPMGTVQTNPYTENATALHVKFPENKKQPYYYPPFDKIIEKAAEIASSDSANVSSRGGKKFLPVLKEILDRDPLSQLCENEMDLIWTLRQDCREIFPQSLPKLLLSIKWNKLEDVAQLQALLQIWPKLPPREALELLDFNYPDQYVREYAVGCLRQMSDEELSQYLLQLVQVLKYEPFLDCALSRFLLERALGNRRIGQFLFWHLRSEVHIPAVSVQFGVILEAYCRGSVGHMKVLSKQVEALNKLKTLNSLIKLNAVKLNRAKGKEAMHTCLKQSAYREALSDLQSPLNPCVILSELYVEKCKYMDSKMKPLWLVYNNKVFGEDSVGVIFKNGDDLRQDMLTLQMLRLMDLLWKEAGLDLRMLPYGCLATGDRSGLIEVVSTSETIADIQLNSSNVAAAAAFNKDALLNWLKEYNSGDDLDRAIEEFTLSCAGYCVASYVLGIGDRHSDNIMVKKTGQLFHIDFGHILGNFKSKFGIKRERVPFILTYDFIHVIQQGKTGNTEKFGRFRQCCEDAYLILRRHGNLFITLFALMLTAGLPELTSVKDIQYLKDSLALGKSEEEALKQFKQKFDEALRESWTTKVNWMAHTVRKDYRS
T3 sequence (P27986 whole entry partner, species assumed): as the sequence (P27986 whole entry partner, species assumed) above
Procedure: as §1, §2
as §3, with “(p110β/p85α)” for “(p110α/p85α)”, “a mixture of Mg/ATP.” for “an ATP solution.”, “phosphatidylinositol-3,4, 5-triphosphate” for “phosphatidylinositol-3,4,5-triphosphate”

[1] = Pharmacokinetic evaluation in mice, IV and PO; type: in vivo, Balb/c female mice; details: for bioavailability: plasma; for bioavailability / Bioavailability (%): mouse; for Vd: read-out: Vdss
Procedure: The tested compound was mixed with 10% DMSO/50% PEG400/40% water, vortexized and ultrasonic to prepare 0.2 mg/mL or 0.4 mg/ml, approximately clarified solution, which was filtered by a microporous membrane and then standby. Balb/c female mice of 18-20 g were selected and given the candidate compound solution intravenously at a dose of 1 or 2 mg/kg. The tested compound was mixed with 10% DMSO/50% PEG400/40% water, vortexized and ultrasonic to prepare 0.2 mg/mL or 1 mg/mL approximately clarified solution, which was filtered by a microporous membrane and then standby. Balb/c female mice of 18 to 20 g were selected and given orally the candidate compound solution at a dose of 2 or 10 mg/kg. Whole blood was collected for a certain period of time, and plasma was prepared. Drug concentration was analyzed by LC-MS/MS method, and pharmacokinetic parameters were calculated by Phoenix WinNonlin software (US Pharsight company).
C0: instantaneous concentration required after intravenous injection; Cmax: the highest blood concentration after administration; Tmax: time required to reach peak concentration after administration; T1/2: the time required for blood drug concentration to decrease by half; Vdss: apparent volume of distribution, which refers to the ratio constant of drug dosage to blood concentration when a drug reaches dynamic equilibrium in vivo. Cl: clearance rate, referring to drug apparent distribution volume number removed from the body per unit time; Tlast: time of last detection point: AUC0-last: an area under a drug duration curve, referring to an area surrounded by the blood drug concentration curve on the time axis; Bioavailability: a measure of the rate and extent of drug absorption into the blood circulation, which was an important index to evaluate drug absorption degree.

[2] = female, Balb/c, IV(1 mg/kg), mouse plasma
[3] = female, Balb/c, IV(2 mg/kg), mouse plasma
[4] = female, Balb/c, PO(2 mg/kg), mouse plasma
[5] = female, Balb/c, PO(10 mg/kg), mouse plasma

**Q.** Which results are given for `COc1ccc([C@@H](O)c2cc(-c3nncc4cc(N5CCOCC5)ccc34)c(F)cc2Cl)nn1` [Embodiment M3814, reference compound]?
**A.** IC50 (DNA-PK (h)): 1 nM; IC50 (PI3K (p110α/p85α)): 42 nM; IC50 (PI3K (p110β/p85α)): 33 nM; Tlast ([1]; IV(1 mg/kg), mouse plasma): 6.00 h; Tlast ([1]; IV(2 mg/kg), mouse plasma): 4.00 h; Tlast ([1]; PO(2 mg/kg), mouse plasma): 8.00 h; Tlast ([1]; PO(10 mg/kg), mouse plasma): 8.00 h; bioavailability ([1]; female, Balb/c, PO(2 mg/kg)): 25.8%; bioavailability ([1]; female, Balb/c, PO(10 mg/kg)): 54%; AUC(0-t) [1, 2]: 1.33 µM·h; C0 [1, 2]: 1970 nM; clearance [1, 2]: 25.9 mL/min/kg; half-life [1, 2]: 42.4 min; Vd [1, 2]: 1.34 L/kg; AUC(0-t) [1, 3]: 1.41 µM·h; C0 [1, 3]: 2160 nM; clearance [1, 3]: 49 mL/min/kg; half-life [1, 3]: 28.7 min; Vd [1, 3]: 1.9 L/kg; AUC(0-t) [1, 4]: 0.688 µM·h; Cmax [1, 4]: 580 nM; half-life [1, 4]: 128 min; Tmax ([1]; female, Balb/c, PO(2 mg/kg), mouse plasma, read-out: Tmax): 15 min; AUC(0-t) [1, 5]: 3.73 µM·h; Cmax [1, 5]: 2060 nM; half-life [1, 5]: 85.8 min; Tmax ([1]; female, Balb/c, PO(10 mg/kg), mouse plasma, read-out: Tmax): 30 min

**Q.** For `COc1ccc(C(O)c2cc(-c3cnnc4c(F)c(N5CCOCC5)cc(F)c34)c(F)cc2Cl)nn1` (single isomer, unassigned) [Embodiment 19], which IC50 (DNA-PK (h)) is on record?
**A.** 2.1 nM

**Q.** And the IC50 (PI3K (p110α/p85α))?
**A.** 483 nM

**Q.** And the IC50 (PI3K (p110β/p85α))?
**A.** 345 nM

**Q.** And the “AUC0-last” value ([1]; IV(1 mg/kg), mouse plasma)?
**A.** 1.569 µM·h

**Q.** What about the C0 ([1]; IV(1 mg/kg), mouse plasma) of the same compound?
**A.** 1290 nM

**Q.** What about the “Cl” value ([1]; IV(1 mg/kg), mouse plasma) of the same compound?
**A.** 20.2 mL/min/kg

**Q.** What about the “T1/2” value ([1]; IV(1 mg/kg), mouse plasma) of the same compound?
**A.** 78.6 min

**Q.** And the “Tlast” value ([1]; IV(1 mg/kg), mouse plasma)?
**A.** 8.00 h

**Q.** And the “Vdss” value ([1]; IV(1 mg/kg), mouse plasma)?
**A.** 2.13 L/kg

**Q.** What about the “AUC0-last” value ([1]; IV(2 mg/kg), mouse plasma) of the same compound?
**A.** 3.832 µM·h

**Q.** What about the C0 ([1]; IV(2 mg/kg), mouse plasma) of the same compound?
**A.** 2250 nM

**Q.** What about the “Tlast” value ([1]; IV(2 mg/kg), mouse plasma) of the same compound?
**A.** 8.00 h

**Q.** What about the “Bioavailability (%)” value ([1]; PO(2 mg/kg)) of the same compound?
**A.** 47.9%

**Q.** And the “AUC0-last” value ([1]; PO(2 mg/kg), mouse plasma)?
**A.** 1.503 µM·h

**Q.** And the Cmax ([1]; PO(2 mg/kg), mouse plasma)?
**A.** 448 nM

**Q.** What about the “T1/2” value ([1]; PO(2 mg/kg), mouse plasma) of the same compound?
**A.** 488 min

**Q.** What about the “Tlast” value ([1]; PO(2 mg/kg), mouse plasma) of the same compound?
**A.** 8.00 h

**Q.** What about the “Tmax” value ([1]; PO(2 mg/kg), mouse plasma) of the same compound?
**A.** 15 min

**Q.** What about the “Bioavailability (%)” value ([1]; PO(10 mg/kg)) of the same compound?
**A.** 70.5%

**Q.** And the “AUC0-last” value ([1]; PO(10 mg/kg), mouse plasma)?
**A.** 13.737 µM·h

**Q.** What about the Cmax ([1]; PO(10 mg/kg), mouse plasma) of the same compound?
**A.** 2740 nM

**Q.** What about the “T1/2” value ([1]; PO(10 mg/kg), mouse plasma) of the same compound?
**A.** 107 min

**Q.** What about the “Tlast” value ([1]; PO(10 mg/kg), mouse plasma) of the same compound?
**A.** 12.0 h

**Q.** What about the “Tmax” value ([1]; PO(10 mg/kg), mouse plasma) of the same compound?
**A.** 60 min
